The record followed here is patent US20260234147A1 (priority 2023, published 2026).

Like-named read-outs stand apart in the source and are kept apart here. A value given as a limit tells only on which side of the number the result lay.

The target in one assay is hKOR (Homo sapiens, UniProt P41145). The experiment in a line: Radioligand binding assay (Eurofins Cerep), [3H]U69,593 displacement.
For another assay, the target named is hDOR (Homo sapiens, UniProt P41143). The experiment in a line: Radioligand binding assay (Eurofins Cerep), [3H]DADLE displacement.
hDOR, sequence (P41143 whole entry): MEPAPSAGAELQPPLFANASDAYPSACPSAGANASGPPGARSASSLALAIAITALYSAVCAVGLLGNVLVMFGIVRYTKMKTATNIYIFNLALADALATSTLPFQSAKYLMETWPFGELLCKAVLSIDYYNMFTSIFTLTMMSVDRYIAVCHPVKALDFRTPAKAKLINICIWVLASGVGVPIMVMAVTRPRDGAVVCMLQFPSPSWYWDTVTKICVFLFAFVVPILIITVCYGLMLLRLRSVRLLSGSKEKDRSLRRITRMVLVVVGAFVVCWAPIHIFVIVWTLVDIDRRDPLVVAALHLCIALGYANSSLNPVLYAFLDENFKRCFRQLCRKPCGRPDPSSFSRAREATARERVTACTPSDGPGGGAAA
The next assay concerns the target hMOR (Homo sapiens, UniProt P35372). In words: Radioligand binding assay (Eurofins Cerep), [3H]DAMGO displacement.
A further assay deals with T1, α2A adrenergic receptor (Homo sapiens, UniProt P08913).
T1 construct: Eurofins Cerep (contract screening)
T1 sequence (P08913 1-465): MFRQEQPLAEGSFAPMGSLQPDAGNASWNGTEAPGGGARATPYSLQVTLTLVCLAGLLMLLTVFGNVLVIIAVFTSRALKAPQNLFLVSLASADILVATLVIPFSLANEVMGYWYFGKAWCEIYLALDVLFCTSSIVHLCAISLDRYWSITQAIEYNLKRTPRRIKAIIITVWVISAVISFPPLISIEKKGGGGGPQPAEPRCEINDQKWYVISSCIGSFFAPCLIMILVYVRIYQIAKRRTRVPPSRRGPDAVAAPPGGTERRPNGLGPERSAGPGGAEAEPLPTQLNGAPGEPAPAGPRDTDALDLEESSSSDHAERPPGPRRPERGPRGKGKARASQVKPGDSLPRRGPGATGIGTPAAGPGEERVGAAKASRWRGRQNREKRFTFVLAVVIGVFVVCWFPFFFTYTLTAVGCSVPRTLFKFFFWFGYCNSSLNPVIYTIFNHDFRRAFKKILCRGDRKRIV
In words: Radioligand binding assay (Eurofins Cerep), [3H]RX 821002 displacement.

The mark [1] stands for this setting: Table 3-2, 3 independent experiments, read-out: Ki (nM ± SEM) KOR.
[2] abbreviates: Table 3-2, 3 independent experiments, read-out: Ki (nM ± SEM) DOR.
[3] abbreviates: Table 3-2, 3 independent experiments, read-out: Ki (nM ± SEM) MOR.
[4] abbreviates: Ki (nM ± SEM) a2A-AR, Table 3-2, 3 independent experiments.
Where [5] appears, read: Table A4, data summary #2, read-out: DOR Ki ± SEM.
The mark [6] stands for this setting: Table A4, data summary #2, read-out: MOR Ki ± SEM.
Where [7] appears, read: Table B1′, read-out: KOR Ki ± SEM.
[8] abbreviates: Table B1′, read-out: DOR Ki ± SEM.
The mark [9] stands for this setting: Table B1′, read-out: MOR Ki ± SEM.
Where [10] appears, read: alpha2A Ki ± SEM (nM), Table B1′.
Setting [11] is: Table 3-5, 3 independent experiments, read-out: Ki (nM ± SEM) KOR.
Where [12] appears, read: Table 3-5, 3 independent experiments, read-out: Ki (nM ± SEM) DOR.
[13] abbreviates: Table 3-5, 3 independent experiments, read-out: Ki (nM ± SEM) MOR.
Where [14] appears, read: Table 3-5, 3 independent experiments, read-out: Ki (nM ± SEM) a2A-ar.

hKOR, sequence (P41145 whole entry): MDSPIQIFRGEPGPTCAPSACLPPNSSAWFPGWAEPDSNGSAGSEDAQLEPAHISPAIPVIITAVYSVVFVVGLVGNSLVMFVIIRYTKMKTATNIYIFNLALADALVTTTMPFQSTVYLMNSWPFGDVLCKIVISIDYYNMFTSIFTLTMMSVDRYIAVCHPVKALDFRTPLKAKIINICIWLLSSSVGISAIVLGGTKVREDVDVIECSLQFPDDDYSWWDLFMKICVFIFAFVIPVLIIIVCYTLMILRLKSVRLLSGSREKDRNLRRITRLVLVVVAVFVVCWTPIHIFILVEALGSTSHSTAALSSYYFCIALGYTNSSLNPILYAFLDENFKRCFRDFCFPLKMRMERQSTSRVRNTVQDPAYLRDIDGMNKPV
hMOR, sequence (P35372 whole entry): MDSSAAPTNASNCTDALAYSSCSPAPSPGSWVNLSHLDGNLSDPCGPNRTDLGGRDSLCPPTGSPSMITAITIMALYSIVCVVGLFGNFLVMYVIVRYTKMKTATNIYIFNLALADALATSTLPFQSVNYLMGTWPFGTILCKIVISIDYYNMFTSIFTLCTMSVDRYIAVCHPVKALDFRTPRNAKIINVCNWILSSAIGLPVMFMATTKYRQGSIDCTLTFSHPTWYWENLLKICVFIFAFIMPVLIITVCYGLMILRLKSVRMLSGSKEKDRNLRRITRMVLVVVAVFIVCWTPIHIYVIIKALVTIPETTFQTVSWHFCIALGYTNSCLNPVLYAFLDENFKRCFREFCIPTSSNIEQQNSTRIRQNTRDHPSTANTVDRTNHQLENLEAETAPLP

A word on the Ki: it is a measure of affinity in units of concentration, obtained from inhibition or displacement. Turning to `COC=C(C(=O)OC)C1CCN(Cc2ccccc2)CC1` [Compound 3-50], the Ki was 5700 ± 558 nM at hKOR (Table 3-4, 3 independent experiments, read-out: Ki (nM ± SEM) KOR); more than 10000 nM at hDOR (Table 3-4, 3 independent experiments, read-out: Ki (nM ± SEM) DOR); more than 10000 nM on hMOR (Table 3-4, 3 independent experiments, read-out: Ki (nM ± SEM) MOR); more than 10000 nM at α2A adrenergic receptor (Ki (nM ± SEM) a2A-AR, Table 3-4, 3 independent experiments).

Regarding `COC=C(C(=O)OC)C1CCN(CCc2c[nH]c3ccc(OC)cc23)CC1` [Compound 3-37], the Ki is 1300 ± 129 nM on hKOR (setting [1]), more than 10000 nM at hDOR (setting [2]), 733 ± 144 nM at hMOR (setting [3]) and 3370 ± 586 nM at α2A adrenergic receptor (setting [4]). Also, the “SR: Selectivity Ratio (KiMOR/Kiα2A)” value at hMOR (Table 3-2) is on record as 0.22.

Consider `CC[C@@H]1CN2CCc3c([nH]c4cccc(OC)c34)[C@@H]2C[C@@H]1/C(=C\OC)C(=O)N1CCSCC1` [SUSM-564], for which the Ki on hDOR (setting [5]) is more than 10000 nM; at hMOR (setting [6]), 134 ± 32 nM.

On to `COC=C(C(=O)OC)C1CCN(CCc2c[nH]c3c(OC)cccc23)CC1` [Compound 3-41], for which the Ki on hKOR (setting [1]) was more than 10000 nM; on hDOR (setting [2]), more than 10000 nM; at hMOR (setting [3]), 5130 ± 8.35 nM; on α2A adrenergic receptor (setting [4]) it was 4900 ± 829 nM. Moreover, at hMOR (Table 3-2), the “SR: Selectivity Ratio (KiMOR/Kiα2A)” value is recorded as 1.04.

On to `COC(=O)CC1CCN(CCc2c[nH]c3cc(OC)ccc23)CC1` [Compound 3-40], for which the Ki at hKOR (setting [1]) was more than 10000 nM; on hDOR (setting [2]), more than 10000 nM; on hMOR (setting [3]) it was more than 10000 nM; at α2A adrenergic receptor (setting [4]) it was 2840 ± 599 nM.

Consider `COC(=O)C=C1CCN2CCC(O)(c3ccc(F)cc3)CC2C1` (stereo not shown), for which the Ki is more than 10000 nM at hKOR (setting [7]), more than 10000 nM at hDOR (setting [8]), 672 ± 222 nM at hMOR (setting [9]) and 311 ± 73 nM on α2A adrenergic receptor (setting [10]).

On to `CC[C@@H]1CN2CCc3c([nH]c4cccc(OC)c34)[C@@H]2C[C@@H]1/C(=C\OC)C(=O)N1CCNCC1` [SUSM-562, (E)-2-((2S,3S,12bS)-3-ethyl-8-methoxy-1,2,3,4,6,7,12,12b-octahydroindolo[2,3-a]quinolizin-2-yl)-3-methoxy-1-(piperazin-1-yl)prop-2-en-1-one], for which the Ki at hDOR was more than 10000 nM; at hMOR (setting [6]), 4210 ± 558 nM.

With `COC(=O)CC1CCN(CC(=O)c2c[nH]c3cccc(OC)c23)CC1` [Compound 3-63], the Ki on hKOR (setting [11]) was more than 10000 nM; at hDOR (setting [12]) it was more than 10000 nM; at hMOR (setting [13]), more than 10000 nM; at α2A adrenergic receptor (setting [14]), 6370 ± 1160 nM.

Take `COC(=O)CC1CCN2CCC(O)(c3ccccc3)CC2C1` (stereo not shown) [drawing 173]: the Ki at hKOR (setting [7]) is 3600 ± 1080 nM; at hDOR (setting [8]) it was more than 10000 nM; at hMOR (setting [9]) it was 8610 ± 2530 nM; at α2A adrenergic receptor (setting [10]), 129 ± 49 nM.

As for `COC(=O)CC1CCN2CC=C(c3ccccc3)CC2C1` (stereo not shown), the Ki on hKOR (setting [7]) was 957 ± 188 nM; at hDOR (setting [8]) it was more than 10000 nM; at hMOR (setting [9]) it was 6980 ± 1450 nM; on α2A adrenergic receptor (Table B1′, read-out: alpha2A Ki ± SEM), 7 ± 2 nM.

With `COC=C(C(=O)OC)C1CCN(Cc2c[nH]c3ccccc23)CC1` [Compound 3-57], the Ki at hKOR (setting [11]) is more than 10000 nM; at hDOR (setting [12]), more than 10000 nM; at hMOR (setting [13]), more than 10000 nM; on α2A adrenergic receptor (Ki (nM ± SEM) a2A-ar, Table 3-5, 3 independent experiments), 867 ± 370 nM.

Take `COC(=O)CC1CCN(Cc2c[nH]c3ccccc23)CC1` [Compound 3-58]: the Ki on hKOR (setting [11]) was 791 ± 216 nM; on hDOR (setting [12]) it was more than 10000 nM; at hMOR (setting [13]) it was 2700 ± 580 nM; at α2A adrenergic receptor (setting [14]) it was 3460 ± 428 nM. The “SR: Selectivity Ratio (KiMOR/Kiα2A)” value at hMOR (Table 3-5) turned out to be 0.78.

For `COC(=O)CC1CCN2CCC(O)(c3ccccc3OC)CC2C1` (single isomer, unassigned), the Ki at hKOR (setting [7]) was more than 10000 nM; on hDOR (setting [8]) it was more than 10000 nM; on hMOR (setting [9]), more than 10000 nM; on α2A adrenergic receptor (setting [10]), 3470 ± 1790 nM.

As for `COC(=O)C=C1CCN2CCC(O)(c3ccccc3)CC2C1` (stereo not shown) [SG-01-053], the Ki at hMOR (Table B2, mean ± SEM, 3 independent experiments, read-out: MOR Ki ± SEM) is more than 10000 nM; at α2A adrenergic receptor (Alpha2A Ki ± SEM (nM), Table B2, mean ± SEM, 3 independent experiments), 95 ± 35 nM.

As to `CC[C@@H]1CN2CCc3c([nH]c4cccc(OC)c34)[C@@H]2C[C@@H]1/C(=C\OC)C(=O)N1CCOCC1` [SUSM-527, (E)-2-((2S,3S,12bS)-3-ethyl-8-methoxy-1,2,3,4,6,7,12,12b-octahydroindolo[2,3-a]quinolizin-2-yl)-3-methoxy-1-morpholinoprop-2-en-1-one], the inhibitory constant (Ki) at hDOR (setting [5]) was more than 10000 nM; at hMOR (setting [6]) it was 1660 ± 427 nM.
